Reference: ChEMBL document CHEMBL1136438, “Inhibitors of hepatitis C virus NS3.4A protease 1. Non-charged tetrapeptide variants” (Bioorg Med Chem Lett, 2003)
*1 amine or outer side, *2 acyl side, *3 side chain or, on linkers, in order; H or OH if unused. Where a SMILES comes first, the peptide text is derived from it. Side-chain parts run from the residue outwards. [ ]: non-standard residue; d: D form. The star is where a group is joined. ξ: configuration not given here. Pro(4R-OPh) = O=C(O)[C@@H]1C[C@@H](Oc2ccccc2)CN1; CH2(1-naphthyl) = c1ccc2c(C*)cccc2c1; NH(1-naphthyl) = c1ccc2c(N*)cccc2c1; Adipoyl = O=C(CCCCC(=O)[*:2])[*:1]; 1Naphthoyl = O=C(c1cccc2ccccc12)*; 2Naphthoyl = O=C(c1ccc2ccccc2c1)*; Pyrazinecarbonyl = O=C(c1cnccn1)*; Hyp = O=C(O)[C@@H]1C[C@@H](O)CN1; ξAla(CF3) = NC(CC(F)(F)F)C(=O)O; Nva = CCC[C@H](N)C(=O)O; X1 = c1ccc2cc(C*)ccc2c1; X2 = Clc1ccc(Cl)c(N*)c1; X4 = COc1ccc(OC)c(N*)c1; 2Abz = Nc1ccccc1C(=O)O; Abu = CC[C@H](N)C(=O)O; X3 = c1ccc2c(c1)CCCN2*; Aib = CC(C)(N)C(=O)O; CO = O=C([*:1])[*:2]; Bz = O=C(c1ccccc1)*; NHPh = c1ccc(N*)cc1; Bn = c1ccc(C*)cc1

What follows are compounds tested against Hepatitis C virus serine protease, NS3/NS4A (Hepatitis C virus, UniProt A3EZI9+D2K2A8) (assay: (§1) Inhibition of HCV (Hepatitis C Virus) NS3-4A protease.).
Hepatitis C virus serine protease, NS3/NS4A (Hepatitis C virus, UniProt A3EZI9+D2K2A8), sequence (D2K2A8 whole entry): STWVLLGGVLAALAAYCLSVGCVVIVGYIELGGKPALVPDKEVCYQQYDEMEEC
Hepatitis C virus serine protease, NS3/NS4A (Hepatitis C virus, UniProt A3EZI9+D2K2A8), sequence (A3EZI9 whole entry): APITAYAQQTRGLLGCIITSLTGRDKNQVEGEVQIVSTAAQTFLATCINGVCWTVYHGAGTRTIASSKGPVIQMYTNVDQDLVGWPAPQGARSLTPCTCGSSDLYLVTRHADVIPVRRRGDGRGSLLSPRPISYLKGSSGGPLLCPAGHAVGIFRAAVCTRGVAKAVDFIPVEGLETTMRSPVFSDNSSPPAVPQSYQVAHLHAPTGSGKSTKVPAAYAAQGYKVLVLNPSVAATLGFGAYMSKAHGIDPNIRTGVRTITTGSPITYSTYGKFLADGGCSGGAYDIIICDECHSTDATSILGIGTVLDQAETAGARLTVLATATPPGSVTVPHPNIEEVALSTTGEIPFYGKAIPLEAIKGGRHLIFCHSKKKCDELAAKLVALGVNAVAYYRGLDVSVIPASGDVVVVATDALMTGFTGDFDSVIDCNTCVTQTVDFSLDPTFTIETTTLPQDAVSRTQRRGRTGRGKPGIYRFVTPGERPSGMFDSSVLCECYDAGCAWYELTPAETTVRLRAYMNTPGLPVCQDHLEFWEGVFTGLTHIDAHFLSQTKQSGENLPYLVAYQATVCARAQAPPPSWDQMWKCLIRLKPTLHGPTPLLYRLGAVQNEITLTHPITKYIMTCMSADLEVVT
Format: protein-complex assay, Hepacivirus hominis

SMILES	Ki [µM]
CC[C@@H](C=O)NC(=O)[C@@H]1C[C@@H](OCc2ccccc2)CN1C(=O)[C@@H](NC(=O)[C@@H](NC(=O)[C@H](CC(=O)O)NC(=O)[C@H](CCC(=O)O)NC(C)=O)C(C)C)C(C)C (Ac-EDVV[Hyp](Bn)[Abu]-aldehyde)	0.89
COC[C@@H](C=O)NC(=O)[C@@H]1C[C@@H](OCc2ccccc2)CN1C(=O)[C@@H](NC(=O)[C@@H](NC(=O)c1cnccn1)C(C)C)C(C)C (Pyrazinecarbonyl-VV[Hyp](Bn)S(Me)-aldehyde)	> 50
CC[C@@H](C=O)NC(=O)[C@@H]1C[C@@H](OCc2ccccc2)CN1C(=O)[C@@H](NC(=O)[C@@H](NC(=O)c1cnccn1)C(C)C)C(C)C (Pyrazinecarbonyl-VV[Hyp](Bn)[Abu]-aldehyde)	12
CC(C)[C@H](NC(=O)c1cnccn1)C(=O)N[C@H](C(=O)N1C[C@H](OCc2ccccc2)C[C@H]1C(=O)NC(C)(C)C=O)C(C)C (Pyrazinecarbonyl-VV[Hyp](Bn)[Aib]-aldehyde)	> 50
CCC[C@@H](C=O)NC(=O)[C@@H]1C[C@@H](OCc2ccccc2)CN1C(=O)[C@@H](NC(=O)[C@@H](NC(=O)c1cnccn1)C(C)C)C(C)C (Pyrazinecarbonyl-VV[Hyp](Bn)[Nva]-aldehyde)	3.8
CC(C)[C@H](NC(=O)c1cnccn1)C(=O)N[C@H](C(=O)N1C[C@H](OCc2ccccc2)C[C@H]1C(=O)NC(C=O)CC(F)(F)F)C(C)C (some centres not stated) (Pyrazinecarbonyl-VV[Hyp](Bn)[ξAla(CF3)]-aldehyde)	3.1

The compounds below were run against Hepatitis C virus serine protease, NS3/NS4A (Hepatitis C virus, UniProt D2K2A8+A3EZI9) (assay: as §1).
Hepatitis C virus serine protease, NS3/NS4A (Hepatitis C virus, UniProt D2K2A8+A3EZI9), sequence (D2K2A8 whole entry): as the sequence (D2K2A8 whole entry) above
Hepatitis C virus serine protease, NS3/NS4A (Hepatitis C virus, UniProt D2K2A8+A3EZI9), sequence (A3EZI9 whole entry): as the sequence (A3EZI9 whole entry) above
Format: protein-complex assay, Hepacivirus hominis

SMILES	Ki [µM]
CC[C@@H](C=O)NC(=O)[C@@H]1C[C@@H](Oc2cccc3cccnc23)CN1C(=O)[C@@H](NC(=O)[C@@H](NC(=O)c1cnccn1)C(C)C)C(C)C	> 50
CC[C@@H](C=O)NC(=O)[C@@H]1C[C@@H](Oc2ccc3ccccc3c2)CN1C(=O)[C@@H](NC(=O)[C@@H](NC(=O)c1cnccn1)C(C)C)C(C)C	7.4
CC[C@@H](C=O)NC(=O)[C@@H]1C[C@@H](Oc2cccc3ccccc23)CN1C(=O)[C@@H](NC(=O)[C@@H](NC(=O)c1cnccn1)C(C)C)C(C)C	2.1
CC[C@@H](C=O)NC(=O)[C@@H]1C[C@@H](OC(=O)c2ccc3ccccc3c2)CN1C(=O)[C@@H](NC(=O)[C@@H](NC(=O)CCCCC(=O)O)C(C)C)C(C)C (Adipoyl-VV[Hyp](2Naphthoyl)[Abu]-aldehyde)	0.11
CC[C@@H](C=O)NC(=O)[C@@H]1C[C@@H](OC(=O)c2cccc3ccccc23)CN1C(=O)[C@@H](NC(=O)[C@@H](NC(=O)c1cnccn1)C(C)C)C(C)C (Pyrazinecarbonyl-VV[Hyp](1Naphthoyl)[Abu]-aldehyde)	1.9
CC[C@@H](C=O)NC(=O)[C@@H]1C[C@@H](OC(=O)c2ccc3ccccc3c2)CN1C(=O)[C@@H](NC(=O)[C@@H](NC(=O)c1cnccn1)C(C)C)C(C)C (Pyrazinecarbonyl-VV[Hyp](2Naphthoyl)[Abu]-aldehyde)	0.4
CC[C@@H](C=O)NC(=O)[C@@H]1C[C@@H](OC(=O)c2ccccc2)CN1C(=O)[C@@H](NC(=O)[C@@H](NC(=O)c1cnccn1)C(C)C)C(C)C (Pyrazinecarbonyl-VV[Hyp](Bz)[Abu]-aldehyde)	5.8
CC[C@@H](C=O)NC(=O)[C@@H]1C[C@@H](OCc2cccc3ccccc23)CN1C(=O)[C@@H](NC(=O)[C@@H](NC(=O)c1cnccn1)C(C)C)C(C)C (Pyrazinecarbonyl-VV[Hyp](CH2(1-naphthyl))[Abu]-aldehyde)	2.9
CC[C@@H](C=O)NC(=O)[C@@H]1C[C@@H](OCc2ccc3ccccc3c2)CN1C(=O)[C@@H](NC(=O)[C@@H](NC(=O)c1cnccn1)C(C)C)C(C)C (Pyrazinecarbonyl-VV[Hyp](X1)[Abu]-aldehyde)	1.7
CC[C@@H](C=O)NC(=O)[C@@H]1C[C@@H](OC(=O)Nc2ccccc2C(=O)OC)CN1C(=O)[C@@H](NC(=O)[C@@H](NC(=O)c1cnccn1)C(C)C)C(C)C (Pyrazinecarbonyl-VV[Hyp]([CO-2Abz-OMe])[Abu]-aldehyde)	2.5
CC[C@@H](C=O)NC(=O)[C@@H]1C[C@@H](OC(=O)Nc2cccc3ccccc23)CN1C(=O)[C@@H](NC(=O)[C@@H](NC(=O)c1cnccn1)C(C)C)C(C)C (Pyrazinecarbonyl-VV[Hyp]([CO-NH(1-naphthyl)])[Abu]-aldehyde)	12.5
CC[C@@H](C=O)NC(=O)[C@@H]1C[C@@H](OC(=O)Nc2ccccc2)CN1C(=O)[C@@H](NC(=O)[C@@H](NC(=O)c1cnccn1)C(C)C)C(C)C (Pyrazinecarbonyl-VV[Hyp]([CO-NHPh])[Abu]-aldehyde)	22.3
CC[C@@H](C=O)NC(=O)[C@@H]1C[C@@H](OC(=O)Nc2cc(Cl)ccc2Cl)CN1C(=O)[C@@H](NC(=O)[C@@H](NC(=O)c1cnccn1)C(C)C)C(C)C (Pyrazinecarbonyl-VV[Hyp]([CO-X2])[Abu]-aldehyde)	3.2
CC[C@@H](C=O)NC(=O)[C@@H]1C[C@@H](OC(=O)N2CCCc3ccccc32)CN1C(=O)[C@@H](NC(=O)[C@@H](NC(=O)c1cnccn1)C(C)C)C(C)C (Pyrazinecarbonyl-VV[Hyp]([CO-X3])[Abu]-aldehyde)	0.89
CC[C@@H](C=O)NC(=O)[C@@H]1C[C@@H](OC(=O)Nc2cc(OC)ccc2OC)CN1C(=O)[C@@H](NC(=O)[C@@H](NC(=O)c1cnccn1)C(C)C)C(C)C (Pyrazinecarbonyl-VV[Hyp]([CO-X4])[Abu]-aldehyde)	7.9
CC[C@@H](C=O)NC(=O)[C@@H]1C[C@@H](Oc2ccccc2)CN1C(=O)[C@@H](NC(=O)[C@@H](NC(=O)c1cnccn1)C(C)C)C(C)C (Pyrazinecarbonyl-VV[Pro(4R-OPh)][Abu]-aldehyde)	3.9
